Source: patent publication US20100298299A1, “NON-PEPTIDE DERIVATIVES AS BRADYKININ B1 ANTAGONISTS” (priority 2007, published 2010)

Experiments:
[1] = biological target: T1, human recombinant bradykinin B1 receptor (Homo sapiens, UniProt P46663); assay: Human recombinant bradykinin B1 receptor binding; conditions: CHO cell membranes, [3H]-[Des-Arg10] Kallidin radioligand; read-out: B1 binding
T1 construct: purchased Euroscreen ES-091; host or cells: CHO cells
T1 sequence (P46663 1-353): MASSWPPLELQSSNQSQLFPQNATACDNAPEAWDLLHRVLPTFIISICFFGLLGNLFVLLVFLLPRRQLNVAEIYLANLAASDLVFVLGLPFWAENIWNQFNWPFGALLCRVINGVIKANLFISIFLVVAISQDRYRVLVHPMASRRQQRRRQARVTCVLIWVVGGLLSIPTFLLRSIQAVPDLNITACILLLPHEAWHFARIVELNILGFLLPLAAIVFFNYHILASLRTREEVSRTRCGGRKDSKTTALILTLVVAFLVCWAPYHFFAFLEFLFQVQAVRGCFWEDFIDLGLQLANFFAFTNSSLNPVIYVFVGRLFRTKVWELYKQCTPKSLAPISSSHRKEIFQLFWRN
Experimental: 1. Human Recombinant Bradykinin B1 Receptor Binding
Binding assays were carried out on human recombinant bradykinin) receptors (expressed in CHO cells) according to the Euroscreen Technical Data Sheet (Cat. No.: ES-091). 20 μg protein/tube was incubated with [3,4-prolyl-3,4-^3H(N)]-[Des-Arg^10] Kallidin as radioligand. Non specific binding was determined in the presence of 10 μM Lys-des-Arg^9-Bradykinin. The final incubation volume was 250 μl. Samples were incubated for 15 min. at 25° C. then were rapidly vacuum filtered through GF/B filters presoaked for at least 1 h in 0.5% PEI. Radioactivity was determined by liquid scintillation spectroscopy.

[2] = biological target: T2, recombinant human B1 receptors (Homo sapiens, UniProt P46663); assay: Functional assay: antagonist potency by cytosolic calcium measurement in CHO-B1 cells; format: cell-based; conditions: CHO-B1 cells, inhibition of LysDABK (EC80)-evoked [Ca2+]i elevation; read-out: B1 func.
T2 construct: host or cells: CHO (CHO-B1)
T2 sequence (P46663 1-353): T1 sequence (P46663 1-353)
Experimental: Assessment of Antagonist Potency at B1 and B2 Receptors In Vitro by Measurement of Cytosolic Calcium Ion Concentration with a Plate Reader Fluorimeter in Cells Expressing Recombinant Human B1 or B2 Receptors
Chinese hamster ovary (CHO) cells stably expressing recombinant human B1 (CHO-B1, Euroscreen) or B2 (CHO-B2, Perkin-Elmer) receptors were cultured in Dulbecco's Modified Eagle's Medium (DMEM) containing 10% Fetal Calf Serum (FCS), 100 U/ml penicillin, 0.1 mg/ml streptomycin, 0.25 μg/ml amphotericin B, 1% Minimum Essential Medium Eagle (MEM), non essential amino acid solution, 600 μg/ml G418, 1% pyruvate (for the B2 cell line). Cells were kept at 37° C. in a humidified incubator in an atmosphere of 5% CO2/95% air and were passaged 1:4 three times a week. Cells were plated at 1.5−2.5×10^4 cell/well on standard 96-well microplates, measurements of cytosolic calcium ion concentration ([Ca^2+]i) were carried out 1-2 days after cell plating.
Measurements of [Ca^2+]i were carried out on CHO-B1 and CHO-B2 cells stably expressing human B1 and B2 receptors, respectively. Cells were grown in standard 96-well microplates and before the measurement were loaded with a fluorescent Ca^2+-sensitive dye, fluo-4/AM (2 μM): after removing the culture medium the dye was added to the cells (dissolved in assay buffer: 145 mM NaCl, 5 mM KCl, 2 mM MgCl2, 2 mM CaCl2, 10 mM HEPES, 20 mM D-glucose, 2 mM probenecid, 100 μl/well) and cells were incubated at 37° C. in a humidified incubator in an atmosphere of 5% CO2/95% air for 40-120 min. To stop dye loading cells were washed twice with assay buffer. After washing, various concentrations of the test compounds (diluted in extracellular medium from a DMSO stock solution, final DMSO concentration was <0.1%) or buffer were added to each well depending on the experimental setup. After incubation at 37° C. for 20-25 min. baseline and agonist-evoked changes of [Ca^2+]i were measured column by column with a plate reader fluorimeter (Fluoroskan Ascent, Labsystems). Excitation and detection of emission was carried out from the bottom of the plate. Filters used for Fluo-4: excitation filter—485 nm, emission filter—538 nm. The whole measurement process was performed at 37° C. and was controlled by custom software. Inhibitory potency of the test compounds was assessed by measuring the reduction in the agonist-evoked [Ca^2+]i-elevation in the presence of different concentrations of the compounds. The agonists were LysDABK for CHO-B1, and bradykinin for CHO-B2 cells. Agonists were applied at an EC80 concentration, the EC80-values were derived from daily determined dose-response curves. Fluorescence data were expressed as ΔF/F (fluorescence change normalized to baseline). All treatments on a single plate were measured in multiple wells. Data from all wells with the same treatment were averaged and the average values were used for analysis. Inhibitory potency of a compound at a single concentration point was expressed as percent inhibition of the control agonist response. Sigmoidal concentration-inhibition curves were fitted to the data (derived from at least three independent experiments) and IC50-values were determined as the concentration that produces half of the maximal inhibition caused by the compound.

Ki [1] [nM] | IC50 [2] [nM] | SMILES
< 20 | < 20 | O=C(N[C@H](Cc1ccc(O)cc1)C(=O)N1CCC(CO)CC1)c1ccc(S(=O)(=O)Nc2ccccc2Oc2ccccc2)cc1 [Example 30, (R)—N-[1-(4-Hydroxy-benzyl)-2-(4-hydroxymethyl-piperidin-1-yl)-2-oxo-ethyl]-4-(2-phenoxy-phenylsulfamoyl)-benzamide]
< 20 | < 20 | C[C@H](NC(=O)c1ccc(S(=O)(=O)Nc2ccccc2Oc2ccccc2)cc1)C(=O)N1CCC(CCN2CCCC2)CC1 [Example 26, (S)—N-{1-Methyl-2-oxo-2-[4-(2-pyrrolidin-1-yl-ethyl)-piperidin-1-yl]-ethyl}-4-(2-phenoxy-phenylsulfamoyl)-benzamide]
< 20 | < 20 | C[C@@H](NC(=O)c1ccc(S(=O)(=O)Nc2ccccc2Oc2ccccc2)cc1)C(=O)N1CCC(CCN2CCCC2)CC1 [Example 1, (R)—N-{1-Methyl-2-oxo-2-[4-(2-pyrrolidin-1-yl-ethyl)-piperidin-1-yl]-ethyl}-4-(2-phenoxy-phenylsulfamoyl)-benzamide]
